“Also recorded” adds a separate entry of the source.
What was measured:
Assay type in all cases: cell-based
MCF-7 cells [1] = assay: Annexin V/propidium iodide FACS assay
Description: The assay is based on the ability of the protein annexin V to bind to phosphatidylserine (PS) exposed on the outer membrane leaflet in apoptotic cells (PS also appears on the necrotic cell surface). The annexin V assay was performed following the manufacturer’s instructions (Annexin V-FITC kit,Alexa Fluor). Briefly, the cells were washed with PBS and suspended in pre-diluted binding buffer. The cell density was adjusted to 2 million and 195 μl of cell suspension were mixed with 5 μl Annexin V-FITC and incubated for 10 min in the dark at room temperature. The cells were washed with binding buffer, re-suspended in 195 μl binding buffer, counterstained with 10 μl of the 20 μg/ml propidium iodide stock (final concentration 1 μg/ml) and the data were acquired by BD FACS diva 7.0 at 6 h, 12 h and 24 h.

[2] = test system: MCF-7 breast cancer cells; assay: MTT colorimetric cell viability assay, MCF-7; settings: for CTRL-TST/CTRL*100 (inhibition) MCF-7: EC50 plate
Description: MCF-7 cells were maintained as monolayer in 25 cm^2 culture flasks (T-25) at 37 °C in DMEM medium (GIBCO, St. Louis, USA) supplemented with high glucose, L-glutamine, pyridoxine hydrochloride, 110 mg/L sodium pyruvate, 3.7 g/L NaHCO3 and antibiotics (Penicillin-10,000 units/mL, Streptomycin −10,000 μg/mL, GIBCO, USA). Growth medium (pH 7.4) was prepared by adding 5% heat inactivated FBS (Fetal Bovine Serum, GIBCO, USA) and stored at 4 °C. The medium was changed 10–18 hrs prior to experiment, and cells were confluent at the time of experimentation. Cells were dislodged from flasks by gentle trypsinization containing 0.25% Trypsin. MCF-7 cells were regularly sub-cultured thrice a week in a seeding density of 40,000–50,000 cells/cm^2area. Cell confluency = 70%
The MTT colorimetric viability assay was performed to evaluate the anticancer effect of compounds. 30,000 cells/100 μl of media were seeded per well and allowed to stretch and adhere overnight at 37 °C. Following day media was removed and 100 μl fresh media was added to the grown cells. […] There was one positive and one negative control along with 13 compounds. The results were measured all in triplicate in 45 wells of 96 well plate at each time point. Cytotoxic effect was evaluated using ability of live cells to cleave MTT ((3-[4, 5- dimethylthiazol-2-yl]-2, 5-diphenyl tetrazolium bromide)) (Sigma-Aldrich, St Louis, MO, USA), into formazan crystals. Post 48 hours of treatment, 10 μl of MTT (5 mg/ml in PBS) was added to the cells and incubated for 4 hours in dark at 37 °C. The violet colored crystals formed were then dissolved in 100 μl DMSO solvent (Dimethyl Sulfoxide, Sigma-Aldrich, St. Louis, MO, USA). The colorimetric assay was read by a MultiMode Plate Reader (Bio-Rad) at 595 nm. Percentage of Inhibition of drug was calculated by following formula:
O.D1 O.D2 O.D3 AVG CTRL-TST CTRL-TST/CTRL*100 stdev

MCF-7 cells [3] = assay: Cell migration (scratch) assay; settings: 24 hours, compared to untreated cells
Description: MCF-7 cells were grown to confluence in six-well tissue culture plastic dishes to a density of ∼0.2 million cells/well. After 24 hrs of seeding, cells were treated with chemical compounds. The medium was removed and the cells were scratched by 200 μL pipette micro tip through the center of the plate. The cultures were washed to remove debris and re-cultured with DMEM containing 10% FBS for cell migration. The cells were imaged at 24 hrs and the migrated distance was measured. Migration rate was calculated by counting five to seven fields per image and the results presented as the average of three independent experiments performed over multiple days.

MCF10A cells = assay: MTT cytotoxicity assay, MCF10A
Description: MCF10A was obtained from American Tissue Type Culture Collection (ATCC, Bethesda, MD). All cells were grown in a humidified atmosphere at 37 °C, with 5% CO2 in air.
The MTT colorimetric viability assay was performed to evaluate the anticancer effect of compounds. 30,000 cells/100 μl of media were seeded per well and allowed to stretch and adhere overnight at 37 °C. Following day media was removed and 100 μl fresh media was added to the grown cells. Adhered cells were then treated with the compounds 5a-m dissolved in DMSO in triplicates at a standard concentration of 50 μM for 48 hours. There was one positive and one negative control along with 13 compounds. The results were measured all in triplicate in 45 wells of 96 well plate at each time point. Cytotoxic effect was evaluated using ability of live cells to cleave MTT ((3-[4, 5- dimethylthiazol-2-yl]-2, 5-diphenyl tetrazolium bromide)) (Sigma-Aldrich, St Louis, MO, USA), into formazan crystals. Post 48 hours of treatment, 10 μl of MTT (5 mg/ml in PBS) was added to the cells and incubated for 4 hours in dark at 37 °C. The violet colored crystals formed were then dissolved in 100 μl DMSO solvent (Dimethyl Sulfoxide, Sigma-Aldrich, St. Louis, MO, USA). The colorimetric assay was read by a MultiMode Plate Reader (Bio-Rad) at 595 nm. Percentage of Inhibition of drug was calculated by following formula: […]
Cytotoxicity assay with MCF 10A
Experiment :MCF10A cytotoxicity assay 48 hours
Raw Data{Wavelength:595.0}
O.D1 O.D2 O.D3 AVG CTRL-TEST CTRL-TST/CTRL*100
(1 picture or pasted object on this page, not shown here)

EC50 ([2]; Homo sapiens, MCF7, MTT, mean of three experiments): 3.5 µM
Structure (SMILES): O=C1Nc2ccccc2C12CCNC2c1ccccc1 (stereo not drawn) [Compound 5l]
Mode of cell death by Annexin-PI FACS (MCF-7 cells [1]): necrosis was also confirmed
CTRL-TST/CTRL*100 (inhibition) MCF-7 ([2]; concentration row 10): 24.36
CTRL-TST/CTRL*100 (inhibition) MCF-7 ([2]; concentration row 20): 33.4492
CTRL-TST/CTRL*100 (inhibition) MCF-7 ([2]; concentration row 30): 48.26
CTRL-TST/CTRL*100 (inhibition) MCF-7 ([2]; concentration row 40): 62.51
CTRL-TST/CTRL*100 (inhibition) MCF-7 ([2]; concentration row 50): 66.98
inhibition at 50 µM ([2]; Homo sapiens, MCF7, 50 μM, 48 hours, MTT, triplicates, read-out: Percentage inhibition MCF-7): 60.96 ± 0.09%
Inhibition of cell migration of MCF-7 cells (MCF-7 cells [3]): inhibit cell migration
Effect on proliferation of healthy MCF10A cells (MCF10A cells): did not inhibit the proliferation; also recorded: little or no effect
CTRL-TST/CTRL*100 MCF10A cytotoxicity (MCF10A cells; 48 hours, 595 nm): 0.08
Percentage inhibition MCF10A (MCF10A cells; MTT, 48 hours): 0.08%

— paper PMC5004205, “Spiro[pyrrolidine-3, 3´-oxindole] as potent anti-breast cancer compounds: Their design, synthesis, biological evaluation and cellular target identification” (Scientific Reports, 2016)
